Measurements published in US8962664B2, “Selective glycosidase inhibitors and uses thereof” (Simon Fraser University, priority 2006, dated 2015).
“Also recorded” adds a separate entry of the source.

What was measured:
[1] = Nine-month repeat dose toxicology study in mice: urinalysis; type: in vivo, wild-type JNPL3 mice; details: mice dosed orally nine months, week 40, pooled urine; F2: NAG-Bt 100 then 1000 mg/kg/day (n = 2); F1: NAG-Bt 100 then NAG-AE 500 mg/kg/day (n = 3)
Protocol: (§1) The toxicological effects of repeated oral administration of (3aR,5R,6S,7R,7aR)-5-(hydroxymethyl)-2-propyl-5,6,7,7a-tetrahydro-3aH-pyrano[3,2-d]thiazole-6,7-diol (NAG-Bt) and (3aR,5R,6S,7R,7aR)-2-(ethylamino)-5-(hydroxymethyl)-5,6,7,7a-tetrahydro-3aH-pyrano[3,2-d]thiazole-6,7-diol (NAG-AE) to wild-type JNPL3 mice over nine months was measured. All animals were obtained from Taconic Farms, Inc. (model number 001638-W-F), and were 10-12 weeks of age at delivery, designated “week 1” of the study. In week 1, the mice were split into three groups: Group E received vehicle alone throughout the study; Group F1 received 100 mg/kg/day NAG-Bt in their food from week 1 to week 15, then were switched to 500 mg/kg/day NAG-AE in their drinking water from week 16 to week 40; Group F2 received 100 mg/kg/day NAG-Bt in their food from week 1 to week 15 then were switched to 1000 mg/kg/day NAG-Bt in their drinking water from week 16 to week 40. […] In week 40, blood and urine samples were collected from animals in each group; the urine samples for animals in each group were pooled prior to analysis, while the blood samples were analyzed individually.

[2] = Nine-month repeat dose toxicology study in mice: general observations; type: in vivo, wild-type JNPL3 mice; details: oral, nine months, comparatively high levels
Protocol: as §1

[3] = tested on: tau phosphorylation and NFT formation; experiment: Reduction of NFT formation in transgenic P301L JNPL3 mice; type: in vivo; details: oral, Group B NAG-Bt 100 then 1000 mg/kg/day; for protein O-GlcNAc modification in hippocampal brain sections: Group D NAG-AE 500 mg/kg/day weeks 16 to 32, anti-OGlcNAc staining; for tau phosphorylation and NFT formation in hippocampal brain sections: Group D NAG-AE 500 mg/kg/day weeks 16 to 32, anti-phospho Tau-Ser404 staining, vs untreated transgenic Group A
Protocol: Animal Dosing and Tissue Collection. Hemizygous transgenic female JNPL3 mice overexpressing human mutant tau protein (P301L) and wild type control mice were obtained from Taconic Farms, Inc. (model numbers 001638-T-F and 001638-W-F, respectively). The mice were 10-12 weeks of age at delivery, designated “week 1” of the study. In week 1, the mice were split into four groups: Group A (transgenic mice) received vehicle alone throughout the study; Group B (transgenic mice) received 100 mg/kg/day NAG-Bt in their food from week 1 to week 15, then were switched to 1000 mg/kg/day NAG-Bt in their drinking water from week 16 to week 32; Group D (transgenic mice) received vehicle alone from weeks 1 to 15, and then 500 mg/kg/day NAG-AE in their drinking water from weeks 16 to 32; Group E (wild-type) received vehicle alone throughout the study. In week 32, three animals per group were sacrificed and tissues were collected. Transgenic mice and controls were sacrificed using a CO2 chamber. About 45 seconds after they stopped breathing, they were perfused transcardially with 30 mL of 0.9% NaCl buffer followed by 30 mL of 4% paraformaldehyde (w/v in 1× phosphate-buffered saline, PBS, pH 7.4). The brains were then carefully dissected and post-fixed in 4% parformaldehyde before being cryoprotected in 20% sucrose (w/v in 1×PBS) for 24 hours at 4° C.
Cryostat sectioning. The brains were then mounted with optimal cutting temperature (OCT) medium (Tissue Tek) and sectioned sagittally on a Reichert-Jung Cryocut 1800 (Leica) using Feather microtome blades (Tissue Tek) at 50 μm and placed in 1×PBS for further processing. The cryostat temperature was set at −17° C. to −19° C.
Immunohistochemical Staining. Free-floating 50 μm sagittal sections (lateral about 0.6 mm from midline, Mouse Brain in Stereotaxic Coordinates, second edition, by George Paxinos and Leith B. J. Franklin) were permeabilized with 1×PBS containing 0.3% Triton X-100 for 15 min. After blocking with 10% goat serum and 2.5% BSA for 1 h at room temperature, sections were incubated with specific antibodies overnight at 4° C. (primary antibodies: anti-OGlcNAc, Covance; anti-phospho Tau-ser404, Santa Cruz). The sections then were washed three times with 0.3% Triton X-100 in PBS for 15 min each and incubated with specific secondary antibody conjugated with Cy3 or FITC for 1.5 h at room temperature in the dark. After several washes in 1×PBS, sections were mounted on slides and air-dried in the dark. Once dry, Vectashield Mounting Medium (Vector Laboratories, Inc.) was added to the slide before applying coverslips. Coverslips were sealed with clear nail enamel and slides were stored in dark at 4° C. For negative control staining, sections were incubated without primary antibodies.
Imaging. […]

[4] = Nine-month repeat dose toxicology study in mice: hematology (CBC) and serum chemistry; type: in vivo, wild-type JNPL3 mice; details: oral, nine months
Protocol: as §1

SMILES | Urine Appear [1] | Urine Bilirubin [1] | Urine Cocci [1] | Urine Color [1] | Urine Creatinine [1] | Urine Epith [1] | Urine Glucose [1] | Urine Ketones [1] | Urine Protein [1] | Urine RBC [1] | Urine Rods [1] | Urine Sp. Grv. [1] | Urine Urobil [1] | Urine WBC [1] | Urine pH [1] | toxicological consequences of long-term dosing [2] | protein O-GlcNAc modification in hippocampal brain sections [3] | tau phosphorylation and NFT formation in hippocampal brain sections [3] | changes in ALT, AST, or sorbitol dehydrogenase (liver toxicity) [4] | Urine Blood [1]
CCCC1=N[C@@H]2[C@@H](O)[C@H](O)[C@@H](CO)O[C@@H]2S1 [NAG-Bt, (3aR,5R,6S,7R,7aR)-5-(hydroxymethyl)-2-propyl-5,6,7,7a-tetrahydro-3aH-pyrano[3,2-d]thiazole-6,7-diol] | Clear | Neg | Neg | Yellow | 7790.9 | Few | Neg | Neg | Neg | Neg | Neg | 1.05 | Normal | Neg | 5 | no serious toxicological consequences | dramatically elevated | dramatically reduced; also recorded: significantly decreased | no changes | 
CCNC1=N[C@@H]2[C@@H](O)[C@H](O)[C@@H](CO)O[C@@H]2S1 [NAG-AE, (3aR,5R,6S,7R,7aR)-2-(ethylamino)-5-(hydroxymethyl)-5,6,7,7a-tetrahydro-3aH-pyrano[3,2-d]thiazole-6,7-diol] | Slcloudy | Neg | Neg | Yellow | 3105.4 | Few | Neg | Neg | Neg | Neg | Neg | 1.039 | Normal | Neg | 6 | no serious toxicological consequences | dramatically elevated | dramatically reduced; also recorded: significantly decreased | no changes | Neg
